Assay results published in ChEMBL document CHEMBL1201862, “PubChem BioAssay data set” (2004).
The source made the active and inactive calls.

What was measured:
SUMO-activating enzyme = SUMO-activating enzyme (Homo sapiens, UniProt Q9UBT2); assay: inhibitors of in vitro SUMOylation cascade, primary screen, biochemical, HTRF, uHTS (AID 2006); format: protein-complex assay
SUMO E1/E2 = SUMO E1/E2 (Homo sapiens, UniProt P63279+Q9UBE0+Q9UBT2); assay: SAR analysis of SUMOylation using HTRF in an in-Vitro dose response assay. [Related pubchem assays (depositor defined):AID2006, AID2011, AID2018, AID2069, AID2658]; format: functional
[1] = biological target: T1, Sentrin-specific protease 8 (Homo sapiens, UniProt Q96LD8); format: functional;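 also: kinetic enzyme assay of SENP8 cleaving a Nedd8 protein substrate, dose-response confirmation of screening hits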
T1 sequence (Q96LD8 whole entry): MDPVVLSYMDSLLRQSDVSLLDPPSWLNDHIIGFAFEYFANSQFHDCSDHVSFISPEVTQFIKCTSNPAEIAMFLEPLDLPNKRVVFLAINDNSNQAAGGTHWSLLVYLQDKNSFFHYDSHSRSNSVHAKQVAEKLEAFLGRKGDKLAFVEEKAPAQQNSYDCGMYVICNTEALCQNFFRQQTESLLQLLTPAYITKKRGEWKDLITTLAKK

[2] = biological target: T2, Zinc finger protein mex-5 (Caenorhabditis elegans, UniProt Q9XUB2); assay: MEX-5/TCR-2 RNA interaction inhibitors, dose response, biochemical, C. elegans, fluorescence polarization (AID 1960)
T2 sequence (Q9XUB2 whole entry): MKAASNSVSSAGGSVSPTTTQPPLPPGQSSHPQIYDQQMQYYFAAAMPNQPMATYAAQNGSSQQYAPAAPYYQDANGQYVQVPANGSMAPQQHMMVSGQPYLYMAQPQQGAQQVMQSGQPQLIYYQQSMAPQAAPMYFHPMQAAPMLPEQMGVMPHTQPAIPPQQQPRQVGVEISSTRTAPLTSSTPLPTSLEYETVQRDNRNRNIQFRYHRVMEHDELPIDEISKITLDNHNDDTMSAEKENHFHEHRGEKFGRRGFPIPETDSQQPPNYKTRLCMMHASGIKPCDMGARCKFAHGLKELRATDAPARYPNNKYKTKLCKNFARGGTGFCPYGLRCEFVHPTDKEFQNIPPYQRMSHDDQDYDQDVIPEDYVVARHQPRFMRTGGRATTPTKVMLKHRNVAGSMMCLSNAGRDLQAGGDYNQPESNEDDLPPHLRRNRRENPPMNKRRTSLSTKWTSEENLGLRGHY

[3] = biological target: Heat shock protein HSP 90-alpha (Homo sapiens, UniProt P07900); format: functional, organism-based
[4] = biological target: T3, RNA-binding protein pos-1 (Caenorhabditis elegans, UniProt G5EF15); assay: inhibitors of POS-1/mex-3 RNA binding, dose response, biochemical, fluorescence polarization (AID 1964);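 also: purified POS-1 fused to maltose binding protein made in E. coli; potency of compounds blocking POS-1 binding to fluorescent RNA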
T3 sequence (G5EF15 whole entry): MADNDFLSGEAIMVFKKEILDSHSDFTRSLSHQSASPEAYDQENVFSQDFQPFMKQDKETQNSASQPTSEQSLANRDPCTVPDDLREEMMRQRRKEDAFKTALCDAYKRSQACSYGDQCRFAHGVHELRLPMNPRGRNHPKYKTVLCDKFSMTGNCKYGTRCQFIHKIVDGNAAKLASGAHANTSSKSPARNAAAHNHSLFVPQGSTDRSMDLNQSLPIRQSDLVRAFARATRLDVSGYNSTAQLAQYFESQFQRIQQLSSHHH

[5] = Shn3 3'UTR reporter inhibitors, dose response, cell-based, Clone20 osteoblasts, firefly luciferase, cherry-picked (AID 624132); format: functional;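 also: firefly luciferase luminescence from reporter carrying the Shn3 3'UTR in osteoblasts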
[6] = biological target: T4, Kappa-type opioid receptor (Homo sapiens, UniProt P41145); format: functional
[7] = biological target: T4, Kappa-type opioid receptor; format: functional; remark: listed apart in the source
[8] = microbe, parasite or virus in culture; format: functional; conditions: Mycobacterium tuberculosis
[9] = biological target: Photoreceptor-specific nuclear receptor (Homo sapiens, UniProt Q9Y5X4); format: functional;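 also: potency for compounds that break the NR2E3 corepressor complex and count as activators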
[10] = biological target: 1-phosphatidylinositol 4,5-bisphosphate phosphodiesterase beta-3 (Homo sapiens, UniProt Q01970); assay: Fluorescence-based biochemical high throughput dose response assay to identify inhibitors of phospholipase C isozymes (PLC-B3).
Phospholipase A2 = Phospholipase A2 (Homo sapiens, UniProt P04054); format: functional;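 also: confirmatory dose-response counterscreen on phospholipase A2, testing hits that came from an ultra-high-throughput screen for ATG4B inhibitors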
Phospholipase A2, sequence (P04054 whole entry): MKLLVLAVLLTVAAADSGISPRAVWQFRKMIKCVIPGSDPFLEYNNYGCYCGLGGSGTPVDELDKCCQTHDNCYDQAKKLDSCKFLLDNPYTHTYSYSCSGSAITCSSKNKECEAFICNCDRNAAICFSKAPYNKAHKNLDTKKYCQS

T4 sequence (P41145 whole entry): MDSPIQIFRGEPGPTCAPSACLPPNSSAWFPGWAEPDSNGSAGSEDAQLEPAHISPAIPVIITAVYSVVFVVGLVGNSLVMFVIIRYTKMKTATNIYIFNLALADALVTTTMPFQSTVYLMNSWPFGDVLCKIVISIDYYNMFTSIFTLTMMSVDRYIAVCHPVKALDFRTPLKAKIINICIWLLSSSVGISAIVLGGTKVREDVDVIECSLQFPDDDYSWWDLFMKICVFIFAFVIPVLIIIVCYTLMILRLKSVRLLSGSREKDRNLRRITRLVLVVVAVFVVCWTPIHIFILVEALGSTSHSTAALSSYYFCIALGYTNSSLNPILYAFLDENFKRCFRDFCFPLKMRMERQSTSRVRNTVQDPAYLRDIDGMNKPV
SUMO-activating enzyme, sequence (Q9UBE0 whole entry): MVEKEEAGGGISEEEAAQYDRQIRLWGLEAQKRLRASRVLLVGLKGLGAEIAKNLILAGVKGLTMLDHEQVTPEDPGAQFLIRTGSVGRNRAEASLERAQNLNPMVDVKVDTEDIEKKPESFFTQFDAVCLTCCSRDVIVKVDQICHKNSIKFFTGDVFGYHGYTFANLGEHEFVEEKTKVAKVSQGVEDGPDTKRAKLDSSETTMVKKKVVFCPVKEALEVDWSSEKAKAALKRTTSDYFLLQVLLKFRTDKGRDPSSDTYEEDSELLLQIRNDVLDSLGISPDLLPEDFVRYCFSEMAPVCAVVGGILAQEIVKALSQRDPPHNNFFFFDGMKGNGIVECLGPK
SUMO-activating enzyme, sequence (Q9UBT2 whole entry): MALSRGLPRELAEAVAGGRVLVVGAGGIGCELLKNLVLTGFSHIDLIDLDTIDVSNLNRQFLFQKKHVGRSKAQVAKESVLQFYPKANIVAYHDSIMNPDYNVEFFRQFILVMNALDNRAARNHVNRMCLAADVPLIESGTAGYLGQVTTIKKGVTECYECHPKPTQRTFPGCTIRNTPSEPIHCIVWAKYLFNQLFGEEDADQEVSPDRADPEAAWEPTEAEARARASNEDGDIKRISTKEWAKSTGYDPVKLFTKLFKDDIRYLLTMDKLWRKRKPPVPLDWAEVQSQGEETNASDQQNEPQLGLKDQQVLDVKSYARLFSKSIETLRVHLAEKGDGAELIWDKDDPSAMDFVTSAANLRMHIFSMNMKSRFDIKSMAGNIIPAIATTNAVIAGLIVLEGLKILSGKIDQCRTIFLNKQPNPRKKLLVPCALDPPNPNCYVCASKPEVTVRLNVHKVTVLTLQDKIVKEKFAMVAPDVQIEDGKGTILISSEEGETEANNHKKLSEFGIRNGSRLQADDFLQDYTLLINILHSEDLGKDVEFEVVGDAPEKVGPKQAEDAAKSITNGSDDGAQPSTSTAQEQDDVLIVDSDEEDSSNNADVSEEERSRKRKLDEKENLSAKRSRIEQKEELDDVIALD
SUMO E1/E2, sequence (Q9UBE0 whole entry): as the sequence (Q9UBE0 whole entry) above
SUMO E1/E2, sequence (Q9UBT2 whole entry): as the sequence (Q9UBT2 whole entry) above
SUMO E1/E2, sequence (P63279 whole entry): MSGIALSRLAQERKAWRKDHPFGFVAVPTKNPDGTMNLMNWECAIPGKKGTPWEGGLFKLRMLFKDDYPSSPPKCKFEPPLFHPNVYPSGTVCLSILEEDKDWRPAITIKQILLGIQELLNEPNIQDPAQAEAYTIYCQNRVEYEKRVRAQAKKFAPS
Photoreceptor-specific nuclear receptor, sequence (Q9Y5X4 whole entry): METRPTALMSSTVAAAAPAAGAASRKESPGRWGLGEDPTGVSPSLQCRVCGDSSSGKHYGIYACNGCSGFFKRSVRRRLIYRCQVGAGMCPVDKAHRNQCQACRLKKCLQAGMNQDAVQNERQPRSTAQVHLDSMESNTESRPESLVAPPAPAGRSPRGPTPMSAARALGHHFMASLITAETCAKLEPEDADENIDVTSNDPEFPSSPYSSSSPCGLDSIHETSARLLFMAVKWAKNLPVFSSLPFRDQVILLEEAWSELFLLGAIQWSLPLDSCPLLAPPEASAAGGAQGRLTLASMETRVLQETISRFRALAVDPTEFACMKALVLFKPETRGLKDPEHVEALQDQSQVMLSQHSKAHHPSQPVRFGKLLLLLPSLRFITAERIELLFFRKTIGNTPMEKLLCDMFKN
1-phosphatidylinositol 4,5-bisphosphate phosphodiesterase beta-3, sequence (Q01970 whole entry): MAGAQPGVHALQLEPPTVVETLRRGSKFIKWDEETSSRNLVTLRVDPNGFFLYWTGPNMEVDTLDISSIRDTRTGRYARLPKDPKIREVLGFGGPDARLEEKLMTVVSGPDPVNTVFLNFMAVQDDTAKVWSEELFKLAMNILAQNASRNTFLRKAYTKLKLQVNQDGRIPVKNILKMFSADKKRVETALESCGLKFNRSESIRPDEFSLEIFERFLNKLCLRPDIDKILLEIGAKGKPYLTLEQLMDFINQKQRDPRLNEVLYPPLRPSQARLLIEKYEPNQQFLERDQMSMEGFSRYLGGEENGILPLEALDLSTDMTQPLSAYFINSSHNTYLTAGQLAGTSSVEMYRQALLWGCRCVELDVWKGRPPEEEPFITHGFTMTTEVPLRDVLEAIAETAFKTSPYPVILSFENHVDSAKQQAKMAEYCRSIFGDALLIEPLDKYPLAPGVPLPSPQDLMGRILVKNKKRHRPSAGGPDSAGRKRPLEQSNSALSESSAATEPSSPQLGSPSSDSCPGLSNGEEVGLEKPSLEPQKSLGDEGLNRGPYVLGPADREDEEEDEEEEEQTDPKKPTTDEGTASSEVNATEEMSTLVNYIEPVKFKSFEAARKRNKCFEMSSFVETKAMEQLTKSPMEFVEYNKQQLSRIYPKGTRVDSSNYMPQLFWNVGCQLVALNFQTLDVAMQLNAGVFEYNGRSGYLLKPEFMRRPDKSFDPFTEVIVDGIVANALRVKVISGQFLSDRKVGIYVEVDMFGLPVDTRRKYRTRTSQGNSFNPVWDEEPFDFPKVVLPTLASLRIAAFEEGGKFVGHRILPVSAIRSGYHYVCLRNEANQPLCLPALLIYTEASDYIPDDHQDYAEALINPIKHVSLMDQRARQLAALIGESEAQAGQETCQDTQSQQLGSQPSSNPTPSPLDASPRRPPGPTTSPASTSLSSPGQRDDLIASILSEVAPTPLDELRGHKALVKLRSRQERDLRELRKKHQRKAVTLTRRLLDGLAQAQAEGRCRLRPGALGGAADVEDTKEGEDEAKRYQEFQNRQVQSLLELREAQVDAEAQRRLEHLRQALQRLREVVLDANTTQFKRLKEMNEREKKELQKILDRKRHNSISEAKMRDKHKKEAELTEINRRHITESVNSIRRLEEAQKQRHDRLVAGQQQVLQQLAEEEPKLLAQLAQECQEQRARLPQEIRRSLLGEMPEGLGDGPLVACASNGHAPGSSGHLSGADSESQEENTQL

SMILES: CCCCn1c(NC(=O)c2ccccc2Cl)c(C#N)c2nc3ccccc3nc21
- IC50 (SUMO-activating enzyme): 2.82 µM (active)
- IC50 (SUMO E1/E2): 10.9 µM (active)

SMILES: O=C1c2cc(F)ccc2-n2c1nc1ccccc1c2=O
- IC50 [1]: 0.985 µM (active)
- EC50 [2]: > 300 µM (not active)
- AC50 [3]: 3.73 µM (active)
- EC50 [4]: > 300 µM (not active)

SMILES: CCC(=O)OCCNc1cc(Sc2nccn2C)c2nonc2c1[N+](=O)[O-]
- AC50 [5]: 1.55 µM (active)
- IC50 [6]: 22.7 µM
- IC50 [7]: 4.05 µM (active)

SMILES: O=C1C(=O)c2ccccc2-c2ccccc21 [9,10-PHENANTHRENEQUINONE]
- CC50 [8]: 2.33 µM (active)
- IC50 [9]: > 39.8 µM (not active)
- IC50 [10]: > 122 µM (inactive)
- IC50 (Phospholipase A2): 42.8 µM (inactive)
